The values that follow come from patent US9663508B2, “Biaryl acyl-sulfonamide compounds as sodium channel inhibitors” (AMGEN INC., priority 2013, dated 2017).

This test deals with human Nav1.7 (Homo sapiens (Human), UniProt Q15858). Briefly: Nav 1.7 in vitro PatchXpress (PX) assay. Type of test: cell-based.

Where two headings read alike, the source gives them in different places.

Chain of human Nav1.7 (Q15858 whole entry): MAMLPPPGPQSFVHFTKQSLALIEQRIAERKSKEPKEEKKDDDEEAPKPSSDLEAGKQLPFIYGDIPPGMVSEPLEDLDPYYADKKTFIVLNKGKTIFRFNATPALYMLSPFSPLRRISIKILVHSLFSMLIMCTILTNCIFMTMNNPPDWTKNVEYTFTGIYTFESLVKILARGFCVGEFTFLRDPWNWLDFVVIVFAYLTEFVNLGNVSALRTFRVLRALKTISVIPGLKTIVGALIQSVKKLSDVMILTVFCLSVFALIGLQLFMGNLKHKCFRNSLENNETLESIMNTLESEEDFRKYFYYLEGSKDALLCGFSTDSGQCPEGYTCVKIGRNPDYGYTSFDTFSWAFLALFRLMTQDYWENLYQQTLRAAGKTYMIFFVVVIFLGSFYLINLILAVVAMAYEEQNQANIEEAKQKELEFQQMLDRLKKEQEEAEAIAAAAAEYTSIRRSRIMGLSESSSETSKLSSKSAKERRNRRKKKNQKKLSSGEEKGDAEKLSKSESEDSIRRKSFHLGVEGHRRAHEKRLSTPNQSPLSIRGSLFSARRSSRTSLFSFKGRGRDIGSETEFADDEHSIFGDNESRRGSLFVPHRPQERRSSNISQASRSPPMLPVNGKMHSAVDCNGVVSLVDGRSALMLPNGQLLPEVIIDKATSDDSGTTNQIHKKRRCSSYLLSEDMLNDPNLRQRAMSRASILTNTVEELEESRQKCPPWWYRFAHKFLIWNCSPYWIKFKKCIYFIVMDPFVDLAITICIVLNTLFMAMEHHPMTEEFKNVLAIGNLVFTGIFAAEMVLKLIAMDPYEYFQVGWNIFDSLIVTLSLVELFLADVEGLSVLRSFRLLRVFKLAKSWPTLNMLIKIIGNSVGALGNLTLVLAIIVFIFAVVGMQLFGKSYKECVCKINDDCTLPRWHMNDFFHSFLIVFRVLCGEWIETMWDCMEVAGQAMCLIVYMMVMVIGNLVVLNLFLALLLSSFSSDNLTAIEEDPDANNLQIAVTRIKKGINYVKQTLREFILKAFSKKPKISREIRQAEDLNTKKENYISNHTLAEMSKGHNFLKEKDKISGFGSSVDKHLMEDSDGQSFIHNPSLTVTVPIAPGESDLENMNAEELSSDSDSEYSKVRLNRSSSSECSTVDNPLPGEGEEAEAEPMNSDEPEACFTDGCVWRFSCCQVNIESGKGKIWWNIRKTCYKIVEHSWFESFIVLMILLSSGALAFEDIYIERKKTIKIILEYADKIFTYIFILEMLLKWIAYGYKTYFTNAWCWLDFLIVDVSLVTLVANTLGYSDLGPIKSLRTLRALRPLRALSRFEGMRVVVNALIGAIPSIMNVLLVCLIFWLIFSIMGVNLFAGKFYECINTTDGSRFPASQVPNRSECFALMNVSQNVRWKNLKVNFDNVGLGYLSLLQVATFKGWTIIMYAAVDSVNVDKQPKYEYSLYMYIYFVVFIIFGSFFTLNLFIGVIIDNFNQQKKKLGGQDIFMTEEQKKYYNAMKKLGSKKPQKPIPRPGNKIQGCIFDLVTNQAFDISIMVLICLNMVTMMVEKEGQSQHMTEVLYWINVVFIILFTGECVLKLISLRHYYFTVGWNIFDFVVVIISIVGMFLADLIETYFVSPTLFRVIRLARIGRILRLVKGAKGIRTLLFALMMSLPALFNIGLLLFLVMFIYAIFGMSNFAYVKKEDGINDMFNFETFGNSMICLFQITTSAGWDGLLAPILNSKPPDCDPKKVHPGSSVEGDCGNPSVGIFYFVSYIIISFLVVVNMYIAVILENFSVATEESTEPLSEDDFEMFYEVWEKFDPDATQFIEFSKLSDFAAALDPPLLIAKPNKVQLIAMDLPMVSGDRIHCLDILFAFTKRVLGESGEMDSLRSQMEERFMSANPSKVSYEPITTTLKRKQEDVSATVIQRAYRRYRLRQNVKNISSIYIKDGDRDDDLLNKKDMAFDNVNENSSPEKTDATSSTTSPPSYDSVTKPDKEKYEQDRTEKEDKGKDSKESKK

The molecule `Cc1cc(C(=O)NS(C)(=O)=O)c(F)cc1-c1ccc(OC(F)(F)C(F)F)cc1` [Example 811, 5-fluoro-2-methyl-N-(methylsulfonyl)-4′-(1,1,2,2-tetrafluoroethoxy)-4-biphenylcarboxamide] came in with an IC50 (in-vitro Nav 1.7 PX data) of 1.57 µM.
As for `Cc1ccc(Oc2ncc(-c3ccc(C(=O)NS(C)(=O)=O)cc3OC(F)F)cc2Cl)cc1C` [Example 459, 4-(5-chloro-6-(3,4-dimethylphenoxy)-3-pyridinyl)-3-(difluoromethoxy)-N-(methylsulfonyl)benzamide], half-maximal inhibition (IC50) was put at 0.095 µM.
Where the note is “in-vitro Nav 1.7 PX data”, `CCC(CC)Nc1ncc(-c2cc(F)c(C(=O)NS(C)(=O)=O)cc2OC)cc1Cl` [Example 725, 4-(5-chloro-6-((1-ethylpropyl)amino)-3-pyridinyl)-2-fluoro-5-methoxy-N-(methylsulfonyl)benzamide] gave a half-maximal inhibitory concentration (IC50) of 0.0965 µM.
On the same count and under the same terms, as for `COc1cc(C(=O)NS(C)(=O)=O)c(F)cc1-c1cnc(NCCC2CCCC2)c(Cl)c1` [Example 731, 4-(5-chloro-6-((2-cyclopentylethyl)amino)-3-pyridinyl)-2-fluoro-5-methoxy-N-(methylsulfonyl)benzamide], the figure is 0.106 µM; as for `COc1cc(C(=O)NS(C)(=O)=O)c(F)cc1-c1cnc(Oc2cccc(Cl)c2)c(Cl)c1` [Example 765, 4-(5-chloro-6-(3-chlorophenoxy)-3-pyridinyl)-2-fluoro-5-methoxy-N-(methylsulfonyl)benzamide], 0.0849 µM.
Take `COc1cc(C(=O)NS(C)(=O)=O)c(F)cc1-c1cnc(Oc2cc(C)ccc2Cl)c(Cl)c1` [Example 752, 4-(5-chloro-6-(2-chloro-5-methylphenoxy)-3-pyridinyl)-2-fluoro-5-methoxy-N-(methylsulfonyl)benzamide]: the IC50 (in-vitro Nav 1.7 PX data) worked out at 0.0421 µM.
Same read-out and setting: as for `COc1cc(C(=O)NS(C)(=O)=O)c(F)cc1-c1cnc(Oc2ccc(Cl)cc2F)c(Cl)c1` [Example 753, 4-(5-chloro-6-(4-chloro-2-fluorophenoxy)-3-pyridinyl)-2-fluoro-5-methoxy-N-(methylsulfonyl)benzamide], the figure is 0.0369 µM; as for `CCS(=O)(=O)NC(=O)c1ccc(-c2cnc(Oc3cccc(Cl)c3C)c(Cl)c2)c(OC)c1` [Example 789, 4-(5-chloro-6-(3-chloro-2-methylphenoxy)-3-pyridinyl)-N-(ethylsulfonyl)-3-methoxybenzamide], 0.0669 µM; as for `COc1cc(C(=O)NS(C)(=O)=O)c(F)cc1-c1cnc(OCC2C(C)(C)C2(C)C)c(Cl)c1` [Example 718, 4-(5-chloro-6-((2,2,3,3-tetramethylcyclopropyl)methoxy)-3-pyridinyl)-2-fluoro-5-methoxy-N-(methylsulfonyl)benzamide], 0.145 µM.
In turn, `CS(=O)(=O)NC(=O)c1cc(C2CC2)c(-c2cnc(OC3CCC3)c(Cl)c2)cc1F` [Example 802, 4-(5-chloro-6-cyclobutoxypyridin-3-yl)-5-cyclopropyl-2-fluoro-N-(methylsulfonyl)benzamide] registered an IC50 (in-vitro Nav 1.7 PX data) of 0.136 µM.
Still for that read-out and setting: the same measure for `Cc1cc(C(=O)NS(C)(=O)=O)c(F)cc1-c1cnc(-c2cc(F)cc(F)c2)c(Cl)c1` [Example 834, 4-(5-Chloro-6-(3,5-Difluorophenyl)-3-Pyridinyl)-2-Fluoro-5-Methyl-N-(Methylsulfonyl)Benzamide]: 0.498 µM.
`CCc1cc(Oc2ncc(-c3ccc(C(=O)NS(C)(=O)=O)cc3OC)cc2Cl)ccc1Cl` [Example 368, 4-(5-chloro-6-(4-chloro-3-ethylphenoxy)-3-pyridinyl)-3-methoxy-N-(methylsulfonyl)benzamide]: the IC50 came to 0.0723 µM.
For `COc1cc(Oc2ncc(-c3cc(F)c(C(=O)NS(C)(=O)=O)cc3OC)cc2Cl)c(Cl)cc1Cl` [Example 716, 4-(5-chloro-6-(2,4-dichloro-5-methoxyphenoxy)-3-pyridinyl)-2-fluoro-5-methoxy-N-(methylsulfonyl)benzamide], the half-maximal inhibitory concentration (IC50) (in-vitro Nav 1.7 PX data) stood at 0.0917 µM.
`COc1cc(C(=O)NS(C)(=O)=O)ccc1-c1cnc(Oc2cc(F)ccc2Cl)c(Cl)c1` [Example 371, 4-(5-chloro-6-(2-chloro-5-fluorophenoxy)-3-pyridinyl)-3-methoxy-N-(methylsulfonyl)benzamide] displayed an IC50 of 0.08 µM.
Take `CS(=O)(=O)NC(=O)c1ccc(-c2cnc(Oc3c(F)ccc(F)c3F)c(Cl)c2)c(Cl)c1` [Example 778, 3-chloro-4-(5-chloro-6-(2,3,6-trifluorophenoxy)-3-pyridinyl)-N-(methylsulfonyl)benzamide]: the midpoint of inhibition (in-vitro Nav 1.7 PX data), the IC50, lay at 0.0734 µM.
In turn, `CC(C)C1CCCN1c1ncc(-c2ccc(C(=O)NS(C)(=O)=O)cc2OC(F)F)cc1Cl` (racemic) [compound 833, 4-(5-Chloro-6-(2-Isopropylpyrrolidin-1-yl)Pyridin-3-yl)-3-(Difluoromethoxy)-N-(Methylsulfonyl)Benzamide] came in with an IC50 (in-vitro Nav 1.7 PX data) of 0.0721 µM.
In the case of `COc1cc(C(=O)NS(C)(=O)=O)ccc1-c1cnc(Oc2ccc(Cl)cc2F)c(Cl)c1` [Example 376, 4-(5-chloro-6-(4-chloro-2-fluorophenoxy)-3-pyridinyl)-3-methoxy-N-(methylsulfonyl)benzamide], the half-maximal inhibitory concentration (IC50) amounted to 0.0603 µM.
The molecule `CCS(=O)(=O)NC(=O)c1ccc(-c2cnc(O[C@H]3C[C@H]4CC[C@@H]3C4)c(Cl)c2)c(OC)c1` [Example 792, 4-(6-((1R,2S,4S)-bicyclo[2.2.1]hept-2-yloxy)-5-chloro-3-pyridinyl)-N-(ethylsulfonyl)-3-methoxybenzamide] had an IC50 (in-vitro Nav 1.7 PX data) of 0.0853 µM.
For `Cc1ccc(Oc2ncc(-c3ccc(C(=O)NS(C)(=O)=O)cc3OC(F)F)cc2Cl)c(Cl)c1` [Example 465, 4-(5-chloro-6-(2-chloro-4-methylphenoxy)-3-pyridinyl)-3-(difluoromethoxy)-N-(methylsulfonyl)benzamide], the midpoint of inhibition, the IC50, lay at 0.0697 µM.
Still for that read-out and setting: the same measure for `Cc1cc(C(=O)NS(C)(=O)=O)c(F)cc1-c1cnc(N2CCC[C@@H]2c2ccccc2C(F)(F)F)c(Cl)c1` [Example 659, 4-(5-chloro-6-((2R)-2-(2-(trifluoromethyl)phenyl)-1-pyrrolidinyl)-3-pyridinyl)-2-fluoro-5-methyl-N-(methylsulfonyl)benzamide, 4-(5-chloro-6-((2S)-2-(2-(trifluoromethyl)phenyl)-1-pyrrolidinyl)-3-pyridinyl)-2-fluoro-5-methyl-N-(methylsulfonyl)benzamide]: 0.107 µM.
Regarding `COc1cc(C(=O)NS(C)(=O)=O)c(F)cc1-c1cnc(OC2(C(F)(F)F)CCC2)c(Cl)c1` [Example 734, 4-(5-chloro-6-((1-(trifluoromethyl)cyclobutyl)oxy)-3-pyridinyl)-2-fluoro-5-methoxy-N-(methylsulfonyl)benzamide], the IC50 (in-vitro Nav 1.7 PX data) is 0.0587 µM.
`Cc1cc(C(=O)NS(C)(=O)=O)c(F)cc1-c1cnc(Oc2ccc(Cl)cc2C(F)(F)F)c(Cl)c1` [Example 679, 4-(5-chloro-6-(4-chloro-2-(trifluoromethyl)phenoxy)-3-pyridinyl)-2-fluoro-5-methyl-N-(methylsulfonyl)benzamide] showed an IC50 of 0.0875 µM.
Take `Cc1cc(Cl)cc(Cl)c1Oc1ncc(-c2cc(F)c(C(=O)NS(C)(=O)=O)cc2F)cc1C#N` [Example 787, 4-(5-cyano-6-(2,4-dichloro-6-methylphenoxy)pyridin-3-yl)-2,5-difluoro-N-(methylsulfonyl)benzamide]: where the note is “in-vitro Nav 1.7 PX data”, the IC50 turned out to be 0.0789 µM.

The IC50 is the point on the concentration scale where inhibition reaches its midpoint. A lower IC50 goes with greater potency in that assay.
